Measured values taken from patent publication US9616006B2, “Methods and compositions for treating dermatological diseases and conditions” (priority 2007, dated 2017).

How the values were obtained:
[1] = test system: PGE2; assay: TPA-induced PGE2 production in keratinocytes (ELISA); type: cell-based, human; conditions: 100 uM
[2] = test system: IL-6; assay: TPA-induced IL-6 production in keratinocytes (ELISA); type: cell-based, human; conditions: 100 uM
[3] = test system: IL-8; assay: TPA-induced IL-8 production in keratinocytes (ELISA); type: cell-based, human; conditions: 100 uM
[4] = test system: TNF-α; assay: TPA-induced TNF-α production in keratinocytes (ELISA); type: cell-based, human
Method: (§1) In one study, various concentrations of DHE were added to culture medium and these media were placed on human fibroblast cell cultures (results shown in FIG. 1). Cells were either not induced or induced with UVB radiation to stimulate cytokine/PGE-2 production. At 24 hours after treatment, the cell culture medium was removed and assayed by ELISA methods for the expression of PGE-2, various cytokines and chemokines.
(§2) When similar experiments were carried out with human keratinocytes, DHE was again found to markedly suppress the UVR induction of PGE-2, with a concentration of 50 uM inhibiting the production of PGE-2 by over 60% (results shown in FIG. 2). […] Further, since PGE-2 is known to be a principal factor in the development of actinic keratosis and skin cancer, DHE can also be used in treating these conditions.
Inflammatory mediators produced in the skin contribute to the development and propagation of such diseases as rosacea, psoriasis and atopic dermatitis. While many inflammatory mediators are involved in these diseases, TNF-α is known to be a major cytokine involved in psoriasis. For atopic dermatitis, TNF-α, IL-8, and MCP-1 are important mediators of inflammation in these diseases. DHE is effective in suppressing the TPA-induced (TPA is tetradecanolyl phorbol ester) production of TNF-α by approximately 50% at a 100 micromolar concentration (results shown in FIG. 3).
(§3) DHE and IE both have inhibitory effects on production of the inflammatory mediators in keratinocytes.

[5] = test system: PGE2; assay: UV-induced PGE2 production in keratinocytes (ELISA); type: cell-based, human
Method: as §1, §2, §3

[6] = test system: IL-6; assay: UV-induced IL-6 production in keratinocytes (ELISA); type: cell-based, human; conditions: 100 uM
Method: as §1, §2, §3

[7] = test system: IL-8; assay: UV-induced IL-8 production in keratinocytes (ELISA); type: cell-based, human; conditions: 100 uM
Method: as §1, §2, §3

[8] = test system: TNF-α; assay: UV-induced TNF-α production in keratinocytes (ELISA); type: cell-based, human; conditions: 100 uM
Method: as §1, §2, §3

[9] = test system: PGE-2; assay: IL-1-induced PGE-2 production in fibroblasts (ELISA); type: cell-based, human; conditions: Fibroblasts (IL-1); 100 uM
Method: as §1, with “Cells were either not induced or induced with UVB radiation to stimulate cytokine/PGE-2 production.” left out
(§4) DHE and IE both have inhibitory effects on the production of the inflammatory mediators in fibroblasts.

[10] = test system: IL-6; assay: IL-1-induced IL-6 production in fibroblasts (ELISA); type: cell-based, human; conditions: Fibroblasts (IL-1); 100 uM
Method: as §1, with “Cells were either not induced or induced with UVB radiation to stimulate cytokine/PGE-2 production.” left out
as §4

[11] = test system: IL-8; assay: IL-1-induced IL-8 production in fibroblasts (ELISA); type: cell-based, human; conditions: Fibroblasts (IL-1); 100 uM
[12] = test system: PGE-2; assay: UV-induced PGE-2 production in fibroblasts (ELISA); type: cell-based, human
Method: as §1
As is shown in FIG. 1, UV radiation (UVR) treatment of fibroblasts results in a 6 fold increase in PGE-2.
as §4

[13] = test system: IL-6; assay: UV-induced IL-6 production in fibroblasts (ELISA); type: cell-based, human; conditions: 100 uM
Method: as §1, §4

[14] = test system: IL-8; assay: UV-induced IL-8 production in fibroblasts (ELISA); type: cell-based, human; conditions: 100 uM
Method: as §1, §4

[15] = test system: MCP-1; assay: LPS-induced MCP-1 production in monocytes; type: cell-based
Text: (§5) DHE and IE both have inhibitory effects on the production of the inflammatory mediators in monocytes.

[16] = test system: IL-12; assay: LPS-induced IL-12 production in monocytes; type: cell-based; conditions: 100 uM
Text: as §5

[17] = test system: TNF-α; assay: LPS-induced TNF-α production in monocytes; type: cell-based
Text: as §5

[18] = test system: IL-8; assay: LPS-induced IL-8 production in monocytes; type: cell-based
Text: as §5

[19] = test system: MCP-1; assay: TNF-α-induced MCP-1 production in monocytes; type: cell-based; conditions: 100 uM
Text: as §5

[20] = test system: IL-8; assay: TNF-α-induced IL-8 production in monocytes; type: cell-based; conditions: 100 uM
Text: as §5

[21] = test system: IL-12; assay: TNF-α-induced IL-12 production in monocytes; type: cell-based; conditions: 100 uM
Text: as §5

[22] = test system: collagen 1 mRNA; assay: Collagen mRNA in fibroblasts by RT-PCR; type: cell-based, human; conditions: fibroblast cell cultures treated 72 hours
Text: (§6) The presently claimed and disclosed inventive concept(s) further contemplates use of various DHE, IE and EV compositions and salts, esters, ethers, and derivatives thereof to mitigate the effects of aging on the skin. For all aging studies, normal human fibroblast cell cultures were used. These cells normally produce collagen, elastin and hyaluronic acid. As the skin ages, the fibroblasts in the dermis lose their ability to produce these three key components of skin, and the skin consequently loses elasticity, thickness and smooth texture. In addition, as fibroblasts age, they increase the expression of certain enzymes that destroy collagen and elastin. There are about 13 of these enzymes, collectively referred to as MMPs (matrix metalloproteinases). One of the principal MMPs, MMP-1, is responsible for collagen degradation. […] Fibroblast cell cultures were treated with either IE, DHE or EV for 72 hours at which time the amount of collagen mRNA present in the cells was determined.

[23] = test system: elastin mRNA; assay: Elastin mRNA in human dermal fibroblasts by RT-PCR; type: cell-based; conditions: 72 hours
Text: as §6, with “In addition, as fibroblasts age, they increase the expression of certain enzymes that destroy collagen and elastin.” left out, “The image is from an electrophoresis gel of DNA amplified by PCR from fibroblast mRNA. This gel was analyzed and” for “Fibroblast cell cultures were treated with either IE, DHE or EV for 72 hours at which time”, “density” for “amount”, “each band quantified by image analysis software.” for “collagen mRNA present in the cells was determined.”

[24] = test system: HAS-2 (Hyaluronic acid synthase-2); assay: HAS-2 mRNA in fibroblasts by RT-PCR; type: cell-based, human; conditions: 72 hours
Text: (§7) The presently claimed and disclosed inventive concept(s) further contemplates use of various DHE, IE and EV compositions and salts, esters, ethers, and derivatives thereof to mitigate the effects of aging on the skin. For all aging studies, normal human fibroblast cell cultures were used. These cells normally produce collagen, elastin and hyaluronic acid. As the skin ages, the fibroblasts in the dermis lose their ability to produce these three key components of skin, and the skin consequently loses elasticity, thickness and smooth texture. In addition, as fibroblasts age, they increase the expression of certain enzymes that destroy collagen and elastin. There are about 13 of these enzymes, collectively referred to as MMPs (matrix metalloproteinases). One of the principal MMPs, MMP-1, is responsible for collagen degradation. For experiments herein to determine the effects of DHE, IE and EV on collagen, elastin and hyaluronic acid, fibroblasts were treated with the compounds for 72 hours, mRNA was then isolated, and analyzed for abundance by RT-PCR (Reverse transcriptase-Polymerase Chain Reaction).
DHE, IE and EV, are also shown herein to stimulate mRNA for HAS-2. HAS-2 (Hyaluronic acid synthase-2) is the enzyme that manufactures hyaluronic acid (HA) in the skin. HA is a glycosaminoglycan important for maintaining moisture and suppleness in the skin. […] As the skin ages, the production of HA decreases and this causes the skin to sag and become thin.

[25] = test system: TIMP-1; assay: TIMP-1 mRNA in fibroblasts by PCR; type: cell-based, human
Text: as §7
Fibroblasts in the skin not only produce enzymes (MMPs) that destroy the skin matrix but they also produce proteins (Tissue Inhibitors of Metalloproteinases, i.e., TIMPS) that inhibit these enzymes. There are several TIMPs, but one that is most important for inhibiting MMPs is TIMP-1. […] Shown in FIG. 11 is PCR data showing the up-regulation of TIMP-1 mRNA by these compounds.

[26] = test system: MMP-1, MMP-3, MMP-8, MMP-9 MMP-10 and MMP-13; assay: MMP protein abundance in human dermal fibroblasts (protein array blotting); type: cell-based
Text: As mentioned above, as fibroblasts age they increase their production of MMP enzymes that destroy collagen and elastin, particularly collagenase, MMP-1. We utilized a protein array blotting technique to determine the effect of DHE, IE and EV on the protein abundance of these enzymes. As shown below, EV is able to reduce the level of several MMPs in human dermal fibroblasts, including MMP-1, MMP-3, MMP-8, MMP-9 MMP-10 and MMP-13 (FIG. 12). This remarkable effect makes this compound an ideal addition to an anti-aging product since MMP levels in aging skin are quite high.

[27] = type: physicochemical; conditions: water-oil emulsion
Method: This surprising and unexpected finding meant that it was necessary to identify a carrier/vehicle system that would accommodate EV in a soluble form and at the same time maintain its chemical stability (defined herein as at least 95% of the ethyl vanillin remaining chemically intact for at least 3 months). In one formulation contemplated herein, EV is dissolved in caprylic/capric triglyceride or other fatty acid triglyceride and then mixed into a silicone fluid wherein the silicone is the primary (greatest percentage) component of the formulation. The cosmetic silicone fluid used in this embodiment accepts the caprylic/capric triglyceride and allows the EV to remain in solution. […] Therefore, the presently claimed and disclosed inventive concept(s) contemplates formulations of EV in non-aqueous solutions, particularly comprising at least 20% to 25% to 30% to 35% to 40% to 45% to 50%, or up to 60%, 70%, 80% or 90% silicone thereby explicitly excluding water-in-oil, or oil-in-water, emulsions. Additionally, besides caprylic capric triglyceride, EV can be solubilized in jojoba oil, sunflower oil or squalane or any other solubilizer which is accepted by the silicones. […]

[28] = test system: human melanocyte cultures; assay: Pigment in human melanocyte cultures; type: cell-based; conditions: treated for 9 days
[29] = test system: tyrosinase; assay: DOPA oxidase assay of cell extracts from treated human melanocytes; type: cell-based; conditions: extracts of human melanocytes treated for 9 days
Method: Cell lysates were prepared from human melanocytes. The amount of tyrosinase in these cell lysates was determined by DOPA oxidase assay.
(§8) FIGS. 14-17 show the skin-lightening effects of topically-applied formulations of isoeugenol and its ester isoeugenol acetate (a.k.a. isoeugenyl acetate) in the treatment of hyperpigmented areas in the skin, wherein a reduction of melanin pigment in the skin is caused by the topical application of the formulations. In addition to blocking a post-tyrosinase step in melanin synthesis, IE and IE acetate can inhibit the expression of the tyrosinase protein in human melanocytes. […] If the cell extracts contain tyrosinase when an aliquot of extract is placed in a tube containing L-DOPA (a tyrosinase substrate) in buffer, the enzyme will convert the DOPA to melanin. The melanin will appear brownish-black in the assay tube. If IE or IE-acetate has inhibited tyrosinase synthesis in melanocytes, then the extracts from these cells will contain no enzyme and will not be able to produce melanin from DOPA in the assay tube. […] In this assay, cell extracts from human melanocytes either left untreated or treated with 200 micromolar of either IE or isoeugenol acetate for 9 days are run on SDS polyacrylamide electrophoresis gels to separate tyrosinase from other proteins. The tyrosinase in the gel is then blotted to a membrane and the tyrosinase detected by staining with a specific anti-tyrosinase antibody. The antibody-bound tyrosinase is then visualized by chemiluminescence.

[30] = test system: tyrosinase; assay: Western immunoblot of tyrosinase abundance in human melanocyte extracts; type: cell-based
Text: as §8

[31] = monocytes, LPS-induced (FIG. 4)

## CCCc1ccc(O)c(OC)c1 [DHE, dihydroeugenol]
[1]
  Percent Inhibition of PGE2: 77%
[2]
  Percent Inhibition of IL-6: 30%
[3]
  Percent Inhibition of IL-8: 45%
[4]; Keratinocytes (TPA), 100 uM
  Percent Inhibition of TNF-α: 12%
[4]; keratinocytes (FIG. 3), 100 micromolar
  suppression of TPA-induced production of TNF-α: approximately 50%
[5]; Keratinocytes (UV), 100 uM
  Percent Inhibition of PGE2: 68%
[5]; human keratinocytes, 50 uM
  inhibition of UVR-induced production of PGE-2: over 60%
[6]
  Percent Inhibition of IL-6: 30%
[7]
  Percent Inhibition of IL-8: 40%
[8]
  Percent Inhibition of TNF-α: 31%
[9]
  Percent Inhibition of PGE-2: 86%
[10]
  Percent Inhibition of IL-6: 47%
[11]
  Percent Inhibition of IL-8: 46%
[12]; Fibroblasts (UV), 100 uM
  Percent Inhibition of PGE-2: 67%
[12]; human fibroblasts, 10 micromolar in culture media after irradiation, 24 hours
  UVR induction of PGE-2: completely blocked
[13]
  Percent Inhibition of IL-6: 49%
[14]
  Percent Inhibition of IL-8: 11%
[15]; Monocytes (LPS), 100 uM
  Percent Inhibition of MCP-1: 60%
[15]; [31]
  production of the chemokine MCP-1: can inhibit the production
[16]
  Percent Inhibition of IL-12: 66%
[17]; Monocytes (LPS), 100 uM
  Percent Inhibition of TNF-α: 78%
[17]; [31]
  production of the cytokine TNF-α: can inhibit the production
[18]; Monocytes (LPS), 100 uM
  Percent Inhibition of IL-8: 70%
[18]; [31]
  production of the chemokine IL-8: can inhibit the production
[19]
  Percent Inhibition of MCP-1: 46%
[20]
  Percent Inhibition of IL-8: 72%
[21]
  Percent Inhibition of IL-12: 98%
[22]
  collagen production (collagen mRNA): stimulation
[23]
  elastin levels (elastin mRNA): increase
[24]
  mRNA for HAS-2: stimulate
[25]
  production of TIMP-1 (TIMP-1 mRNA): significantly stimulate

## CCOc1cc(C=O)ccc1O [EV, ethyl vanillin]
[22]
  collagen production (collagen mRNA): stimulation
[23]
  elastin levels (elastin mRNA): increase
[24]
  mRNA for HAS-2: stimulate
[25]
  production of TIMP-1 (TIMP-1 mRNA): significantly stimulate
[26]
  level of several MMPs (protein abundance): reduce
[27]
  time within which EV significantly decomposes: 24 to 48 h

## CC=Cc1ccc(OC(C)=O)c(OC)c1 [isoeugenol acetate]
[28]
  pigment in human melanocyte cultures: loss of pigment
[29]; listed as IE-acetate
  tyrosinase activity / melanin made from L-DOPA by cell extracts: very little melanin was made
[29]; listed as TH-213
  tyrosinase activity / melanin made from L-DOPA by cell extracts: absence of tyrosinase activity
[30]; human melanocyte extracts, 200 μM, 9 days, control approximately 7.25 RDU
  tyrosinase abundance (relative densitometric units): ~3.75 RDU
[30]; human melanocytes treated with 200 micromolar for 9 days
  tyrosinase present (western immunoblot): almost no detectable tyrosinase
